# In the oligonucleotide strings, read from the 5' end, every base follows the letter of its sugar. An asterisk marks phosphorothioate; unmarked linkages are phosphodiester. Other units and linkages are bracketed, terminal groups are in braces. A string of capitals states the bases alone. e = 2'-O-(2-methoxyethyl) (MOE); [5mC] = 5-methylcytosine; d = 2'-deoxy (DNA)
# Tested on: human apolipoprotein B mRNA
# Test: Inhibition of human apolipoprotein B mRNA levels in HepG2 cells, quantitative real-time PCR
# Type: cell-based
# Settings: for % INHIB (inhibition of human apolipoprotein B mRNA levels): HepG2 cells treated with 150 nM of compound, quantitative real-time PCR; for % INHIB / % Change in apolipoprotein B mRNA expression / % INHIB 50 nm / % INHIB 150 nm: HepG2 cells; for % INHIB: human apolipoprotein B mRNA, oligonucleotides targeting genomic sequence SEQ ID NO 334
# Procedure, shortened: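 Apolipoprotein B transcript was quantified by one-step TaqMan RT-PCR, normalized to GAPDH or RiboGreen RNA, and expressed as percent inhibition against an untreated-sample standard curve. HepG2 cells were harvested 16-24 h after oligonucleotide exposure, which was delivered with 3.75 μg/mL Lipofectin over 4-7 h at 80% confluency.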
# [1] = Table 11 gene walk, 50 nM, averages from two experiments
# [2] = Table 11 gene walk, 150 nM, averages from two experiments
# [3] = 50 nm oligonucleotide, variable deoxy gap position
# [4] = 150 nm oligonucleotide, variable deoxy gap position
substance,measurement,setting,value
281624 (antisense eG*eG*eT*eT*e[5mC]*dT*dA*dG*d[5mC]*d[5mC]*dG*dT*dA*dG*dT*eT*eT*e[5mC]*e[5mC]*e[5mC]) [compound 281624],% INHIB (inhibition of human apolipoprotein B mRNA levels),averages from two experiments,75%
301020 (eG*eG*e[5mC]*eG*eG*dG*d[5mC]*dT*d[5mC]*d[5mC]*dT*d[5mC]*dA*dG*d[5mC]*eG*eG*e[5mC]*eA*eG; antisense) [compound 301020],% INHIB (inhibition of human apolipoprotein B mRNA levels),averages from two experiments,85%
301100 (antisense eT*eA*e[5mC]*eT*eG*dT*dG*dA*d[5mC]*d[5mC]*dT*dA*dT*dG*d[5mC]*e[5mC]*eA*eG*eG*eA) [compound 301100],% INHIB,averages from two experiments,55%
301043 (eA*eA*eA*eA*eA*dT*dG*d[5mC]*d[5mC]*dA*dT*d[5mC]*d[5mC]*dT*dT*e[5mC]*eT*eG*eA*eG; antisense) [compound 301043],% INHIB (inhibition of human apolipoprotein B mRNA levels),averages from two experiments,81%
301082 (antisense e[5mC]*eT*eA*eT*eG*d[5mC]*dA*dG*dA*dG*dT*dG*dT*dG*dG*eT*e[5mC]*eT*eT*eG) [compound 301082],% INHIB,averages from two experiments,41%
"331022 (antisense GCCTCAGTCTGCTTCGCAC; sugars from the 5' end e5 d10 e4, all phosphorothioate, methylation of C not given here) [compound 331022]",% Change in apolipoprotein B mRNA expression,"10 nM, 24 hour (Table 41)",−33%
same,% Change in apolipoprotein B mRNA expression,"50 nM, 24 hour (Table 41)",−49%
same,% Change in apolipoprotein B mRNA expression,"150 nM, 24 hour (Table 41)",−87%
308611 (eT*eT*eA*e[5mC]*e[5mC]*dA*dG*d[5mC]*d[5mC]*dA*d[5mC]*dA*dT*dG*d[5mC]*eA*eG*e[5mC]*eT*eT; antisense) [compound 308611],% INHIB 50 nm,[1],59%
same,% INHIB 150 nm,[2],95%
271038 (eG*eT*e[5mC]*eT*eA*d[5mC]*d[5mC]*dT*d[5mC]*dA*dA*dA*dG*d[5mC]*dG*eT*eG*e[5mC]*eA*eG; antisense) [compound 271038],% INHIB (inhibition of human apolipoprotein B mRNA levels),averages from two experiments,29%
281601 (antisense eA*eG*e[5mC]*e[5mC]*eT*dG*dG*dA*dT*dG*dG*d[5mC]*dA*dG*d[5mC]*eT*eT*eT*e[5mC]*eT) [compound 281601],% INHIB (inhibition of human apolipoprotein B mRNA levels),averages from two experiments,83%
"308636 (GCCTCAGTCTGCTTCGCGCC; all C 5-methyl, all phosphorothioate, sugars by position not given here; further chemistry not fully specified) [compound 308636]",% INHIB 50 nm,"Table 17 variable gap, 50 nM, averages from three experiments",81%
same,% INHIB 150 nm,"Table 17 variable gap, 150 nM, averages from three experiments",91%
270994 (antisense eG*e[5mC]*e[5mC]*eT*eT*dT*dG*dA*dT*dG*dA*dG*dA*dG*d[5mC]*eA*eA*eG*eT*eG) [compound 270994],% INHIB (inhibition of human apolipoprotein B mRNA levels),averages from two experiments,51%
301197 (antisense e[5mC]*eA*eT*eA*eG*d[5mC]*dT*d[5mC]*dA*d[5mC]*d[5mC]*dT*dT*dG*d[5mC]*eA*e[5mC]*eA*eT*eT) [compound 301197],% INHIB,averages from two experiments,28%
301137 (eA*eG*eT*eG*eG*dA*dA*dG*dT*dT*dT*dG*dG*dT*d[5mC]*eT*e[5mC]*eA*eT*eT; antisense) [compound 301137],% INHIB,averages from two experiments,41%
308590 (antisense eA*e[5mC]*e[5mC]*eT*eT*d[5mC]*dT*dG*d[5mC]*dT*dT*dG*dA*dG*dT*eT*eA*e[5mC]*eA*eA) [compound 308590],% INHIB 50 nm,[1],26%
same,% INHIB 150 nm,[2],98%
271025 (eT*e[5mC]*e[5mC]*eA*eT*dT*d[5mC]*d[5mC]*d[5mC]*dT*dA*dT*dG*dT*d[5mC]*eA*eG*e[5mC]*eA*eT; antisense) [compound 271025],% INHIB (inhibition of human apolipoprotein B mRNA levels),averages from two experiments,16%
301076 (e[5mC]*e[5mC]*eA*eG*eT*dA*dT*dT*dT*d[5mC]*dA*d[5mC]*dG*d[5mC]*d[5mC]*eA*eA*eT*e[5mC]*e[5mC]; antisense) [compound 301076],% INHIB,averages from two experiments,36%
271000 (antisense eG*e[5mC]*eA*eG*e[5mC]*dT*d[5mC]*d[5mC]*dT*dG*dG*dG*dT*d[5mC]*d[5mC]*e[5mC]*eT*eG*eT*eA) [compound 271000],% INHIB (inhibition of human apolipoprotein B mRNA levels),averages from two experiments,22%
301083 (antisense eA*eG*eA*eA*eG*dA*dT*dG*d[5mC]*dA*dA*d[5mC]*d[5mC]*dA*d[5mC]*eA*eT*eG*eT*eA) [compound 301083],% INHIB,averages from two experiments,29%
301163 (antisense eG*e[5mC]*eT*eG*eG*dG*d[5mC]*dA*dT*dG*d[5mC]*dT*d[5mC]*dT*d[5mC]*eT*e[5mC]*e[5mC]*e[5mC]*e[5mC]) [compound 301163],% INHIB,averages from two experiments,51%
301088 (antisense eA*eT*eG*eT*eT*d[5mC]*dA*d[5mC]*dT*dG*dA*dG*dA*d[5mC]*dA*eG*eG*e[5mC]*eT*eG) [compound 301088],% INHIB,averages from two experiments,41%
301019 (eG*eG*e[5mC]*eT*e[5mC]*d[5mC]*dT*d[5mC]*dA*dG*d[5mC]*dG*dG*d[5mC]*dA*eG*e[5mC]*eA*eA*e[5mC]; antisense) [compound 301019],% INHIB (inhibition of human apolipoprotein B mRNA levels),averages from two experiments,70%
308607 (eA*eT*eT*eT*eG*dA*dA*dT*dG*dT*d[5mC]*dA*dT*dG*dG*eT*eA*eG*e[5mC]*e[5mC]; antisense) [compound 308607],% INHIB 50 nm,[1],9%
same,% INHIB 150 nm,[2],77%
"332772 (antisense GCCTCAGTATTATTCGCACC; sugars from the 5' end e5 d10 e5, all phosphorothioate, methylation of C not given here) [compound 332772]",% Change in apolipoprotein B mRNA expression,"50 nM, 24 hour (Table 40)",+99%
same,% Change in apolipoprotein B mRNA expression,"150 nM, 24 hour (Table 40)",+84%
301155 (eA*eA*eA*eG*eA*dA*dT*dT*dA*d[5mC]*d[5mC]*d[5mC]*dT*d[5mC]*d[5mC]*eA*e[5mC]*eT*eG*eA; antisense) [compound 301155],% INHIB,averages from two experiments,33%
308601 (antisense eT*eG*eG*eT*eA*dG*d[5mC]*d[5mC]*dT*d[5mC]*dA*dG*dT*d[5mC]*dT*eG*e[5mC]*eT*eT*e[5mC]) [compound 308601],% INHIB 50 nm,[1],63%
same,% INHIB 150 nm,[2],91%
281606 (antisense eT*eG*e[5mC]*eA*eA*d[5mC]*dT*dG*dT*dA*dA*dT*d[5mC]*d[5mC]*dA*eG*e[5mC]*eT*e[5mC]*e[5mC]) [compound 281606],% INHIB (inhibition of human apolipoprotein B mRNA levels),averages from two experiments,86%
281591 (eT*eG*e[5mC]*e[5mC]*eA*d[5mC]*dA*dT*dT*dG*d[5mC]*d[5mC]*d[5mC]*dT*dT*e[5mC]*e[5mC]*eT*e[5mC]*eG; antisense) [compound 281591],% INHIB (inhibition of human apolipoprotein B mRNA levels),averages from two experiments,90%
271010 (antisense eT*eG*eT*e[5mC]*eA*d[5mC]*dA*dA*d[5mC]*dT*dT*dA*dG*dG*dT*eG*eG*e[5mC]*e[5mC]*e[5mC]) [compound 271010],% INHIB (inhibition of human apolipoprotein B mRNA levels),averages from two experiments,57%
271042 (eA*eG*eT*eT*eT*d[5mC]*d[5mC]*dT*d[5mC]*dA*dT*d[5mC]*dA*dG*dA*eT*eT*e[5mC]*e[5mC]*e[5mC]; antisense) [compound 271042],% INHIB (inhibition of human apolipoprotein B mRNA levels),averages from two experiments,57%
281592 (eG*e[5mC]*eT*eG*eA*dT*d[5mC]*dA*dG*dA*dG*dT*dT*dG*dA*e[5mC]*eA*eA*eG*eG; antisense) [compound 281592],% INHIB (inhibition of human apolipoprotein B mRNA levels),averages from two experiments,56%
301211 (antisense e[5mC]*eT*e[5mC]*eT*e[5mC]*dT*dG*dA*dA*dA*dA*dA*dT*dA*dT*eA*e[5mC]*e[5mC]*e[5mC]*eT) [compound 301211],% INHIB,averages from two experiments,17%
281614 (antisense eT*eA*eA*eG*e[5mC]*dT*dG*dT*dA*dG*d[5mC]*dA*dG*dA*dT*eG*eA*eG*eT*e[5mC]) [compound 281614],% INHIB (inhibition of human apolipoprotein B mRNA levels),averages from two experiments,63%
"308637 (AGGTTACCAGCCACATGCAG; 1-10-9 MOE gapmer, phosphorothioate, chemistry not fully specified) [compound 308637]",% INHIB 50 nm,[3],79%
same,% INHIB 150 nm,[4],95%
301136 (e[5mC]*eT*eT*e[5mC]*eA*d[5mC]*dA*dA*dA*dT*dA*d[5mC]*dA*d[5mC]*dA*e[5mC]*e[5mC]*eT*eG*e[5mC]; antisense) [compound 301136],% INHIB,averages from two experiments,20%
"308634 (AGGTTACCAGCCACATGCAG; 10-10-0 MOE gapmer, phosphorothioate, chemistry not fully specified) [compound 308634]",% INHIB 50 nm,[3],45%
same,% INHIB 150 nm,[4],67%
308625 (e[5mC]*eT*eT*e[5mC]*eG*d[5mC]*dG*d[5mC]*d[5mC]*dT*dT*d[5mC]*dT*dG*d[5mC]*eT*eT*eG*eA*eG; antisense) [compound 308625],% INHIB 50 nm,"Table 13 gene walk, 50 nM, averages from two experiments",64%
same,% INHIB 150 nm,"Table 13 gene walk, 150 nM, averages from two experiments",83%
301122 (e[5mC]*eT*eG*eA*eG*dA*dT*dT*dA*d[5mC]*d[5mC]*d[5mC]*dG*d[5mC]*dA*eG*eA*eA*eT*e[5mC]; antisense) [compound 301122],% INHIB,averages from two experiments,32%
308589 (antisense e[5mC]*eT*eT*e[5mC]*eT*dG*d[5mC]*dT*dT*dG*dA*dG*dT*dT*dA*e[5mC]*eA*eA*eA*e[5mC]) [compound 308589],% INHIB 50 nm,[1],20%
same,% INHIB 150 nm,[2],94%
271039 (eT*eA*eG*eA*eG*dG*d[5mC]*dT*dA*dA*d[5mC]*dG*dT*dA*d[5mC]*e[5mC]*eA*eT*e[5mC]*eT; antisense) [compound 271039],% INHIB (inhibition of human apolipoprotein B mRNA levels),averages from two experiments,4%
301179 (antisense e[5mC]*eA*eG*e[5mC]*eT*d[5mC]*dT*dA*dA*dT*d[5mC]*dT*dA*dA*dA*eG*eA*e[5mC]*eA*eT) [compound 301179],% INHIB,averages from two experiments,22%

# — patent US7803930B2, “Antisense modulation of apolipoprotein B-expression” (Isis Pharmaceuticals, Inc., priority 2002, dated 2010)
